Columns and labels:
[1] = system: fleas (Ctenocephalides felis); assay: Efficacy of soft chews against induced flea infestations on dogs (Example 2); type: in vivo; settings: for % Reduction Fleas: soft chew of Table 6, once on Day 0, dogs; for Percent reduction (efficacy) against fleas: Table 6 soft chew, treated once on Day 0, dogs
Description: Sixteen beagles were studied to determine the effectiveness of a soft chewable veterinary composition comprising Compound A against induced infestations of Dermacentor variabilis and Ctenocephalides felis.
Four Treatment Groups containing four dogs each were formed. Dogs in Group 1 were untreated. […] All dogs were treated once on Day 0.
All dogs were infested with approximately 100 C. felis on Days −1, 8, 15, 22, 29, 35, 43, 57 and 71. All dogs were also infested with approximately 50 D. variabilis on Days −1, 7, 14, 21, 28, 34 and 42. Both ticks and fleas were counted upon removal on Days 2, 9, 16, 23, 30, 36 and 44. Fleas were counted upon removal for all Treatment Groups on Days 58 and 72.

[2] = system: Amblyomma americanum (lone star tick); assay: Efficacy against induced Amblyomma americanum infestations on dogs (Example 4); type: in vivo; settings: at least approx. 2.5 mg/kg once on Day 0
Description: Two treatment groups were formed, each containing eight dogs each. Dogs in Group 1 were untreated. Dogs in Group 2 were treated once on Day 0 with soft chewable compositions containing Compound A at a concentration to deliver a dose of at least approximately 2.5 mg/kg.
Ticks were counted on Days 2, 9, 16, 23, 30 and 38. The percent efficacy of the treated group versus the untreated control group 48 hours after infestation exceeded 91% at Days 2, 9, 16 and 23, with percent efficacy values of 99.2, 98.7, 99.4 and 91.7, respectively (p-values≤0.001). At Day 38 the percent efficacy was measured at 89.7%.

[3] = system: fleas (Ctenocephalides felis); assay: Efficacy and speed of kill against fleas on dogs (Example 3); type: in vivo
Description: Three Treatment Groups were formed. Dogs in Group 1 were untreated. […] Groups 1 and 2 contained 12 dogs each and Group 3 contained 4 dogs. All dogs were treated once on Day 0.
All dogs were infested with approximately 75 C. felis on Days 0 and 7. The dogs in Group 3 and dogs in pre-allocated subgroups in Groups 1 and 2 were also infested with approximately 75 C. felis on Days 14, 21 and 28. Fleas were counted upon removal from selected subjects at 30 minutes, 4 hours, and 12 hours after treatment or infestation on Days 0 and 7. On Days 14, 21 and 28, fleas were counted upon removal from selected subjects at 8 and 12 hours after infestation. […] Following infestation at later timepoints, the composition started working within 30 minutes, and by 12 hours after infestation on Days 7, 14 and 21, efficacy of >98% was achieved.

Ixodes holocyclus = assay: Efficacy against induced Ixodes holocyclus infestations on dogs (Example 5)
[4] = Plasma concentration of Compound A in dogs after oral administration (FIG. 5); type: in vivo; settings: soft chews at 20 mg/kg and 40 mg/kg compared with polyethylene glycol/alcohol solution at 25 mg/kg
Description: Although the extremely high bioavailability of the chewable compositions is in part due to the physicochemical properties of the isoxazoline active agents, the high levels observed from the chewable compositions of the invention are made possible by the presence and combination of the non-active excipients, which ensure complete and predictable dissolution of the composition and maintain the active agents in solution in the digestive tract of the animal. […] This plot compares the plasma concentration of an isoxazoline active agent (Compound A) delivered from soft chewable compositions of the invention designed to deliver 20 mg/kg and 40 mg/kg of body weight with administration of a polyethylene glycol/alcohol solution of the active agent at 25 mg/kg body weight. […] This is particularly surprising since the chewable compositions are in the form of a solid that must disintegrate and completely release and solubilize the active agent for efficient absorption during digestion. One would expect the solution to provide higher bioavailability because the active agent is completely dissolved when administered.

Structure (SMILES): O=C(CNC(=O)c1ccc(C2=NOC(c3cc(Cl)cc(C(F)(F)F)c3)(C(F)(F)F)C2)c2ccccc12)NCC(F)(F)F (stereo not drawn) [Compound A, 4-[5-[3-chloro-5-(trifluoromethyl)phenyl]-4,5-dihydro-5-(trifluoromethyl)-3-isoxazolyl]-N-[2-oxo-2-[(2,2,2-trifluoroethyl)amino]ethyl]-1-naphthalenecarboxamide]
- % Reduction Fleas ([1]; Group 2, approximately 1.5 mg/kg, Day 2): 100.0%
- % Reduction Fleas ([1]; Group 2, approximately 1.5 mg/kg, Day 9): 100.0%
- % Reduction Fleas ([1]; Group 2, approximately 1.5 mg/kg, Day 16): 100.0%
- % Reduction Fleas ([1]; Group 2, approximately 1.5 mg/kg, Day 23): 100.0%
- % Reduction Fleas ([1]; Group 2, approximately 1.5 mg/kg, Day 30): 100.0%
- % Reduction Fleas ([1]; Group 2, approximately 1.5 mg/kg, Day 36): 99.2%
- % Reduction Fleas ([1]; Group 2, approximately 1.5 mg/kg, Day 44): 97.8%
- % Reduction Fleas ([1]; Group 2, approximately 1.5 mg/kg, Day 58): 89.4%
- % Reduction Fleas ([1]; Group 2, approximately 1.5 mg/kg, Day 72): 79.6%
- % Reduction Fleas ([1]; Group 3, approximately 2.5 mg/kg, Day 2): 100.0%
- % Reduction Fleas ([1]; Group 3, approximately 2.5 mg/kg, Day 9): 100.0%
- % Reduction Fleas ([1]; Group 3, approximately 2.5 mg/kg, Day 16): 100.0%
- % Reduction Fleas ([1]; Group 3, approximately 2.5 mg/kg, Day 23): 100.0%
- % Reduction Fleas ([1]; Group 3, approximately 2.5 mg/kg, Day 30): 100.0%
- % Reduction Fleas ([1]; Group 3, approximately 2.5 mg/kg, Day 36): 100.0%
- % Reduction Fleas ([1]; Group 3, approximately 2.5 mg/kg, Day 44): 99.3%
- % Reduction Fleas ([1]; Group 3, approximately 2.5 mg/kg, Day 58): 96.7%
- % Reduction Fleas ([1]; Group 3, approximately 2.5 mg/kg, Day 72): 94.4%
- % Reduction Fleas ([1]; Group 4, approximately 3.5 mg/kg, Day 2): 100.0%
- % Reduction Fleas ([1]; Group 4, approximately 3.5 mg/kg, Day 9): 100.0%
- % Reduction Fleas ([1]; Group 4, approximately 3.5 mg/kg, Day 16): 100.0%
- % Reduction Fleas ([1]; Group 4, approximately 3.5 mg/kg, Day 23): 100.0%
- % Reduction Fleas ([1]; Group 4, approximately 3.5 mg/kg, Day 30): 100.0%
- % Reduction Fleas ([1]; Group 4, approximately 3.5 mg/kg, Day 36): 99.6%
- % Reduction Fleas ([1]; Group 4, approximately 3.5 mg/kg, Day 44): 98.3%
- % Reduction Fleas ([1]; Group 4, approximately 3.5 mg/kg, Day 58): 95.2%
- % Reduction Fleas ([1]; Group 4, approximately 3.5 mg/kg, Day 72): 80.6%
- Percent reduction (efficacy) against fleas ([1]; through Day 44, all groups (approx. 1.5, 2.5 or 3.5 mg/kg)): above 95%
- Percent reduction (efficacy) against fleas ([1]; through Day 58, Groups 3 and 4): above 95%
- Percent reduction (efficacy) against fleas ([1]; through and including Day 30, all treatment groups (approx. 1.5, 2.5 or 3.5 mg/kg)): 100%
- Percent efficacy versus untreated control group ([2]; 48 hours after infestation, at Days 2, 9, 16 and 23, Table 10 soft chew): exceeded 91%
- Percent efficacy versus untreated control group ([2]; Day 2, 48 hours after infestation, Table 10 soft chew): 99.2%
- Percent efficacy versus untreated control group ([2]; Day 9, 48 hours after infestation, Table 10 soft chew): 98.7%
- Percent efficacy versus untreated control group ([2]; Day 16, 48 hours after infestation, Table 10 soft chew): 99.4%
- Percent efficacy versus untreated control group ([2]; Day 23, 48 hours after infestation, Table 10 soft chew): 91.7%
- Percent efficacy versus untreated control group ([2]; Day 38, Table 10 soft chew): 89.7%
- Duration of excellent control of Amblyomma americanum ([2]; Table 10 soft chew): > 30 days
- Flea efficacy ([3]; 12 hours after administration on Day 0, soft chews of Tables 7 and 8, approx. 2.5 mg/kg): 100%
- Time until compositions started working against fleas ([3]; after treatment on Day 0, approx. 2.5 mg/kg): ≤ 30 min
- Flea efficacy ([3]; by 12 hours after infestation on Days 7, 14 and 21, soft chews of Tables 7 and 8, approx. 2.5 mg/kg once on Day 0): > 98%
- Time until composition started working against fleas ([3]; following infestation at later timepoints, approx. 2.5 mg/kg once on Day 0): ≤ 30 min
- Percent efficacy (Ixodes holocyclus; 24 hours post infestation on Days 1, 8, 15 and 22, Table 10 soft chew, at least 2.5 mg/kg once on Day 0): at least 95.8%
- Percent efficacy (Ixodes holocyclus; 48 hours post infestation, all time points measured, once on Day 0, at least 2.5 mg/kg Compound A (Table 10), combination plus at least 0.5 mg/kg milbemycin oxime (Table 13)): at least 98.7%
- Percent efficacy (Ixodes holocyclus; 72 hours post infestation, all time points measured, once on Day 0, at least 2.5 mg/kg Compound A (Table 10), combination plus at least 0.5 mg/kg milbemycin oxime (Table 13)): at least 99.2%
- Plasma concentration of Compound A [4]: significantly higher plasma levels

Reference: US9931320B2, “Parasiticidal oral veterinary compositions comprising systemically-acting active agents, methods and uses thereof” (MERIAL INC., priority 2012, dated 2018)
